What was measured:
[1] = tested on: corneal endothelial cell population; assay: Quantitative RT-PCR of expanded corneal endothelial cell population; type: cell-based, human
Description: (2) The cells express one or more of Collagen 8a2, AQP1 (aquaporin 1) and SLC4A11 (Solute Carrier Family 4 Member 11). […] The expression of Collagen 8a2, AQP1 or SLC4A11 may be estimated by standard techniques known in the art, such as for example immunohistochemistry, quantitative RT-PCR or by FACS analysis.
The expression of RPE65 and CD31 may be estimated by standard techniques known in the art, such as for example quantitative RT-PCR, immunohistochemistry or FACS analysis.

[2] = tested on: human corneal endothelial cells (CECs); assay: CEC population expansion, immunohistochemical observation of cellular morphology (ZO-1); type: cell-based; settings: 10 micromolar, 10 days
Protocol: Cells were cultured at 37° C. in 5% CO2 for 10 days.
In order to observe that the expanded cell population has the required cellular morphology for use in vivo, the ability of the cells to form tight junctions was measured by immunohistochemistry as follows. Cell cultures were fixed with 4% PFA for 20 minutes, permeabilized and blocked in a blocking solution of 0.3% Triton X-100 (Sigma-Aldrich) and 3% donkey serum in PBS for 30 minutes. Cells were then labeled with primary antibody in the blocking solution for 12 hours at 4° C. Primary antibody used was ZO-1 from Invitrogen. Samples were washed in PBS three times and donkey-raised secondary antibody Alexa Fluor 488 (Molecular Probes) at 1:500 dilution were applied for 30 minutes at room temperature. Cells were washed three times in PBS and nuclei (DNA) were stained with Sytox Orange (567 nm, Life Technologies). […] Fluorescence was observed using a Zeiss LSM 880 confocal microscope.

[3] = tested on: pYAP (Ser127) in human HaCaT cells; assay: Target Identification Assay: western blot for pYAP in HaCaT cell lysates; type: cell-based; settings: 9 μM for 1 hour in the presence of 0.5 μM Okadaic acid
Protocol: Compounds of Formula A1, or subformulae thereof, selectively target LATS1/2 versus MST1/2 kinases. To identify the target of the hits from the YAP translocation assay screen, the Target Identification Assay as described in the Examples Section A was performed. The results of the assay are described in FIGS. 33A to 33C.
It is consistent with the consensus in the field that LATS is responsible for YAP phosphorylation.

LATS1 = LATS1 (Homo sapiens (Human), UniProt O95835); assay: Target Identification Assay: inhibition of LATS1 activity (FIG. 33C); type: biochemical; settings: read-out: IC50 against LATS1
Chain of LATS1 (O95835 whole entry): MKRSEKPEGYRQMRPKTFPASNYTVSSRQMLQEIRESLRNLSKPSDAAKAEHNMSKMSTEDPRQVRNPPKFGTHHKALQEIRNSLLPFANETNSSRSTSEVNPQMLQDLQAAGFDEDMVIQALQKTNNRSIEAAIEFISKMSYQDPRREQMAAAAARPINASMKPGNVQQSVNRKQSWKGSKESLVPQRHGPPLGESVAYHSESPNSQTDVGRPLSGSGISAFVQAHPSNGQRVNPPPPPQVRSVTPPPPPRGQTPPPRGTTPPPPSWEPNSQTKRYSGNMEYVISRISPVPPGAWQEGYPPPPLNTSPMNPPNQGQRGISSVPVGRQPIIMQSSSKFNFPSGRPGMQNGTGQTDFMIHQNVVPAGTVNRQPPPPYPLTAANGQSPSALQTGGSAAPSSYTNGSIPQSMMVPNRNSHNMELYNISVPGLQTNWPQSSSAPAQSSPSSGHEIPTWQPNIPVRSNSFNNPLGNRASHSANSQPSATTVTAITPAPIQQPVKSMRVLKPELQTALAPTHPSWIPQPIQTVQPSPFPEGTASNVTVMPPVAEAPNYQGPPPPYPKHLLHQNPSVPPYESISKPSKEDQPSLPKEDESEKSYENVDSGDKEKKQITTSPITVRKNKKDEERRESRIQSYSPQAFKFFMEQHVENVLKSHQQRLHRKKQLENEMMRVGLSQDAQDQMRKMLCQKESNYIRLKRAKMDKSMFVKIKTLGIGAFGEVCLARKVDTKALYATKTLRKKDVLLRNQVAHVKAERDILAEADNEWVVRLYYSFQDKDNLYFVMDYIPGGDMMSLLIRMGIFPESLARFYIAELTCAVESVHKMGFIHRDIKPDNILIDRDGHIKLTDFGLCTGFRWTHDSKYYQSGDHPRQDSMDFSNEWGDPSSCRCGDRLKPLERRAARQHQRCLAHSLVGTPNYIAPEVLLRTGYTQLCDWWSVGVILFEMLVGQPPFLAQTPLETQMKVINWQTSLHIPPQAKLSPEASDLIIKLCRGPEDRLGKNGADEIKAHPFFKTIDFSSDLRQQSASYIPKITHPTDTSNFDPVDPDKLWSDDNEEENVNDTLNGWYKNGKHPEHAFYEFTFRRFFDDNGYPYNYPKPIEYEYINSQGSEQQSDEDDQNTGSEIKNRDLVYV
Description: The result further confirmed that the compounds of the invention are potent inhibitors of the LATS kinases.

[4] = tested on: Phospho-YAP (SER127) in liver tissue; assay: In vivo treatment of mice: Phospho-YAP (pYAP) HTRF in liver tissue; settings: mouse liver, single oral dose 10 mg/kg
Protocol: (§1) All animal studies were carried out in accordance with federal, state, local and institutional guidelines governing the use of laboratory animals in research. Male C57BL/6J mice (age 8-10 weeks) were purchased from Jackson Labs (Bar Harbor, Me.). Example 46 was formulated for oral dosing at 3 mg/ml, and Example 261 at 1 mg/ml, in a suspension of methylcellulose:Tween80:Water (0.5:0.5:99). Single oral dose of either compound was at 10 mL/kg body weight. Blood and liver tissue were collected under deep anesthesia (isoflurane) at either 2 h post-dose (for mRNA analysis) or 24 h post-dose (for immunohistochemistry).
Frozen liver tissue was transferred into a Lysing Matrix tube (MP, cat #6913-500) with a 1:50 solution of Protease inhibitor (Sigma-Aldrich, cat #P8340) in Phosphosafe extraction buffer (Novagen, cat #71296-3) and homogenized using the FastPrep-24 (MP biomedicals). […] The protein concentration was measured using the BCA Protein Assay Kit (Pierce cat. 23227) following the manufacturer's protocol. […] The same input quantity was used for each sample, based on total protein content (30-60 ug per sample per well). […] Plates were read on an EnVision (PerkinElmer) with emission wavelengths of 665 nm & 620 nm. The HTRF signal ratio was calculated as Signal(665 nm)/Signal(620 nm))×10000 as specified in the manufacturer's protocol. […]

[5] = tested on: Ki67-positive hepatocytes; assay: In vivo treatment of mice: immunohistochemistry (IHC) for Ki67 in liver; settings: mouse liver, single oral dose 10 mg/kg, 24 h post-dose, relative to vehicle, mean+/-SEM
Protocol: as §1
Liver tissue was fixed in 10% neutral buffered formalin for 24-48 h. Processing and embedding in paraffin was by standard procedures. Sections were cut at 5 microns thickness and stained using a Ventana automated system. Primary antibody for mouse Ki67 was a rabbit IgG (Bethyl Labs). Ki67-positive hepatocytes were quantified by image analysis using the HALO platform. At least 3 sections per animal were analyzed, from the middle of the medial lobe.

CC(C)(O)CC(C)(C)Nc1nc(-c2ccncc2)nc2cnccc12 [Example 49, 2,4-dimethyl-4-{[2-(pyridin-4-yl)pyrido[3,4-d]pyrimidin-4-yl]amino}pentan-2-ol]
expression of Collagen 8a2, AQP1, SLc4A11 by quantitative RT-PCR [1]: express genes normally expressed by corneal endothelial cells in vivo | expression of RPE65 and CD31 by quantitative RT-PCR [1]: do not express markers of other epithelia present in the eye | CEC morphology and tight junctions (ZO-1) [2]: retained a normal corneal endothelial cell morphology and the ability to form tight junctions

Cc1n[nH]cc1-c1nc(NC2(C)CC2)c2ccncc2n1 [Example 133, 2-(3-methyl-1H-pyrazol-4-yl)-N-(1-methylcyclopropyl)pyrido[3,4-d]pyrimidin-4-amine]
pYAP by western blot [3]: dramatically inhibited | IC50 (LATS1): 1.3 nM

CC(C)(C)Nc1cc(-c2ccncc2)nc2cnccc12 [Example 261, N-(tert-butyl)-2-(pyridin-4-yl)-1,7-naphthyridin-4-amine]
pYAP (% of control) [4]: 60 % of control | Ki67 IHC (fold-change) [5]: 3.1 (+/−0.5) fold-change
